{"source": "patent US12448655B2", "about": "“Antibiotic susceptibility of microorganisms and related methods and systems” (CALIFORNIA INSTITUTE OF TECHNOLOGY, priority 2017, dated 2025)", "key": {"[1]": {"system": "Neisseria gonorrhoeae", "assay": "Two-step aAST with surfactant (CHAPS) only in the secondary exposure, qPCR CT ratio (Example 11)", "assay_type": "cell-based", "details": "1 μg/mL ceftriaxone 15 min, then 10 mM CHAPS with DNaseI 5 min", "description": "This example was performed using a two-step exposure in which the first step is exposure to a beta-lactam antibiotic and the second step is a 1:1 dilution into DNaseI treatment in the presence of a surfactant.\nThe inclusion of the surfactant enhances the accessible nucleic acids made available by short (15 minute) b-lactam exposure by adding a second incubation step with a surfactant. Differences in DNA accessibility between the unexposed and exposed tubes are enhanced. DNaseI is used to degrade the DNA made accessible by beta-lactam treatment and the surfactant.\nFIG. 23 describes the layout of this experiment. An NG isolate is incubated with a beta-lactam antibiotic for 15 minutes, followed by a DNaseI digestion step in the presence of surfactant. At each time point, DNaseI will be added to degrade the accessible DNA, then the DNaseI will be inactivated simultaneously with the lysis of the remaining cells. The quantified nucleic acids represent those inaccessible from the DNaseI throughout the exposure protocol. • 1. Provide incubation media containing enhancer, accessibility, with and without an antibiotic for each isolate\nThe samples were mixed before transferring 25 μL of the sample to the prepared secondary incubation (enhancer) tubes. […]"}, "[2]": {"system": "Neisseria gonorrhoeae", "assay": "AST by inaccessible DNA, 1 incubation step with Triton X-100 and DNaseI, qPCR (Example 1)", "assay_type": "cell-based", "description": "An antibiotic susceptibility test can be performed with methods herein described comprising 15-minute co-incubation of the sample with antibiotics and an enhancing treatment followed by cell lysis, and detection of differences in amounts of detected DNA between the antibiotic-susceptible and a corresponding control but not in antibiotic-resistant NG isolates with respect to a corresponding control.\nFor each isolate, two incubation tubes were prepared in 2 mL purple cap tubes (VWR Cat #89004-298), following the indication in table x below, titled “Antibiotic Exposure per 500 μL”. Add Triton X (enhancer), DNaseI (Cat: M0303L) (degrader), NaHCO3 (conditioner).\nThe antibiotic incubation/exposure was performed on a heat-shake block fit to 2 mL purple cap tubes (VWR Cat #89004-298). The particular shake-block was measured with a thermocouple to ensure the temperature inside the tubes with 500 μL of media is 37° C. (settings 38° C. and 1000 rpm shaking), qPCR was used for NA amplification\nExtraction was performed following “DEB Extraction” description in the general methods using Eppendorf tubes. Vortex samples briefly (2 seconds) and centrifuge before transferring 10 μL of the sample to 90 μL of the extraction buffer. • 9. Optionally, continue incubation of the treated and untreated samples for a control of the antibiotic efficacy over >15 minute exposures\nThe “qPCR” description in the general methods was followed. All DEB-extracted DNA were quantified using a primer mix=(10 µM forward and reverse) targeting N. gonorrhoeae porA gene. Samples were run in qPCR triplicates (10 μL reactions) at an annealing temperature 62° C. The primers target the porA gene. • 11. Data analysis is performed on the raw cq measurements obtained from the qPCR instrument"}, "[3]": {"system": "E. coli isolates", "assay": "Quantification of DNA release following antibiotic exposure, filtration and ddPCR (Example 27)", "assay_type": "cell-based, Escherichia coli", "design": "dose or concentration left out as unconfirmed", "details": "15 min exposure, 0.22 μm filtration, ddPCR", "description": "Filtration experiments. Filtration experiments were performed using E. coli isolates exposed to 0.5 μg/mL ertapenem for 15 min. Immediately following exposure, cultures were passed through 0.22 μm, 1.5 mL cellulose acetate centrifuge tube filters (Corning Costar Spin-X, Corning, NY) by adding 50 μL of sample to the filter and centrifuging for 4 minutes at 1000 ref. DNA was extracted from both the feed and filtrate using QuickExtract DNA Extraction Solution (Lucigen, Middleton, WI, USA). Samples were diluted 10× into extraction buffer and extracted according to manufacturer instructions. The concentration of the single copy E. coli uidA gene was then quantified in the feed and filtrate extractions. The percentage of E. coli DNA in the filtrate was calculated as the filtrate concentration divided by the feed concentration. Droplet digital PCR (ddPCR) was performed using QX200 ddPCR Supermix for EvaGreen (BioRad). 10% of the final reaction volume was template. Published primers targeting the uidA gene in E. coli were used at a final concentration of 500 nM. Cycling conditions consisted of 5.0 min at 95° C., followed by 40 cycles of 95° C. for 30 sec, 60° C. for 30 sec, and 72° C. for 30 sec., with final dye stabilization steps of 4° C. for 5.0 min followed by 90° C. for 5.0 min.\nTo investigate the mechanism of pol-aAST, experiments were performed to separate free NAs from NAs contained within structurally intact cells or associated with cell debris. Susceptible and resistant clinical isolates were exposed to β-lactams for 15 min, then filtered through […] filters to remove cells from free NAs. NAs in the sample and eluate were then quantified using droplet digital PCR (ddPCR)."}}}
{"smiles": "CO/N=C(\\C(=O)N[C@@H]1C(=O)N2C(C(=O)O)=C(CSc3nc(=O)c(=O)[nH]n3C)CS[C@H]12)c1csc(N)n1", "note": "[CRO, ceftriaxone]", "values": [{"measurement": "CT ratio (control/treated, qPCR)", "setting": "[1]; ceftriaxone-susceptible isolates ng_5, ng_17, ng_19", "result": "> 1.5"}, {"measurement": "CT ratio (control/treated, qPCR)", "setting": "[1]; reduced-susceptibility isolate ng_30", "result": "< 1.5"}, {"measurement": "Cqs of treated sample compared with control (no ABX)", "setting": "[2]; ceftriaxone-resistant isolate ng_30, 15-minute incubation with 1% TritonX-100 and DNaseI", "result": "not distinguishable from the control"}, {"measurement": "difference in relative concentrations (inaccessible DNA) control vs treated", "setting": "[2]; ceftriaxone-susceptible isolate ng_3, 15-minute incubation with 1% TritonX-100 and DNaseI", "result": 11, "unit": "fold"}, {"measurement": "Cq difference between control and antibiotic-treated sample (FIG. 3 bars (a) and (b))", "setting": "[2]; ceftriaxone-susceptible isolate ng_3, 15-minute incubation with 1% TritonX-100 and DNaseI in MH media", "result": 3.5, "unit": "Cq"}, {"measurement": "average percentage of DNA released from susceptible isolates", "setting": "[3]", "result": 6, "unit": "%"}]}
